Target: T1, GAT2 (Homo sapiens, UniProt Q9NSD5)
T1 sequence (Q9NSD5 1-602): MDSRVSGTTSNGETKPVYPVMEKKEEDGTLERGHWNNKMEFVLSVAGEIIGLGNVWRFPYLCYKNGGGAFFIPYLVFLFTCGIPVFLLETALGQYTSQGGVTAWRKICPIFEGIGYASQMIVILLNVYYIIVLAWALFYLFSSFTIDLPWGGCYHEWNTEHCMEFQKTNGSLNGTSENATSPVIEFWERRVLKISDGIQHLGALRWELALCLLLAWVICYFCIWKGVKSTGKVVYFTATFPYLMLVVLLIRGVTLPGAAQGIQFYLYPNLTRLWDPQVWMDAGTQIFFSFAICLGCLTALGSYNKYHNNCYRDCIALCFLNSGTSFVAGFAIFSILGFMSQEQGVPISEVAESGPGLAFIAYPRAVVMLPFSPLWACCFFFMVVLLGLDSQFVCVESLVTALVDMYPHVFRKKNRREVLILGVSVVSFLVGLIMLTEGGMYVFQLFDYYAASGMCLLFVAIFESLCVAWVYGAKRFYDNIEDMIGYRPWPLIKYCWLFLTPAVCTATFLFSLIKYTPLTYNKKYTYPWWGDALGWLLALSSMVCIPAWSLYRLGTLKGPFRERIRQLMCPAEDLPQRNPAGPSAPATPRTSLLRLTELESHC
Assay: [3H]-GABA uptake in transfected HEK293S GnTI− cells
Assay type: cell-based

NCCCC(=O)O [GABA]
[3H]-GABA uptake in transfected HEK293S GnTI- cells: Specific uptake of [^3H]-GABA in HEK293S cells expressing wild-type GAT1, wild-type GAT2
